Results: ChEMBL document CHEMBL3272338, “Bis-basic-substituted polycyclic aromatic compounds. A new class of antiviral agents. 8. Bis-basic derivatives of carbazole, dibenzofuran, and dibenzothiophene” (1977)

Key:
Format in all cases: functional
[1] = test system: Encephalomyocarditis virus; assay: Antiviral activity against Encephalomyocarditis virus infected in CF-1 mouse assessed as host survival time ratio at 250 mg/kg, sc administered 28, 22, 2 hrs before and 2 hrs after virus inoculation; settings: route subcutaneous
[2] = test system: Encephalomyocarditis virus; assay: Antiviral activity against Encephalomyocarditis virus infected in CF-1 mouse assessed as host survival time ratio at 50 mg/kg, sc administered 28, 22, 2 hrs before and 2 hrs after virus inoculation; settings: route subcutaneous
[3] = test system: Encephalomyocarditis virus; assay: Antiviral activity against Encephalomyocarditis virus infected in CF-1 mouse assessed as host survival time ratio at 10 mg/kg, sc administered 28, 22, 2 hrs before and 2 hrs after virus inoculation; settings: route subcutaneous
[4] = test system: Encephalomyocarditis virus; assay: Antiviral activity against Encephalomyocarditis virus infected in CF-1 mouse assessed as host survival time ratio at 50 mg/kg, po administered via gavage at 28, 22, 2 hrs before and 2 hrs after virus inoculation
[5] = test system: Encephalomyocarditis virus; assay: Antiviral activity against Encephalomyocarditis virus infected in CF-1 mouse assessed as host survival time ratio at 250 mg/kg, po administered via gavage as single dose at 22 to 28 hrs before virus inoculation

Row | Structure (SMILES) | Ratio [1] | Ratio [2] | Ratio [3] | Ratio [4] | Ratio [5]
1 | CCN(CC)CCOc1ccc2oc3ccc(OCCN(CC)CC)cc3c2c1.Cl | 0.91 | 1.31 | 1.21 | 1.17 | 1.02
2 | CCCCN(CCCC)CCCOc1ccc2sc3ccc(OCCCN(CCCC)CCCC)cc3c2c1.Cl | 0.96 | 1.14 | 0.88 | 0.9 | 0.88
3 | Cl.c1cc2oc3ccc(OCCN4CCCCC4)cc3c2cc1OCCN1CCCCC1 | 1.02 | 1.25 | 0.94 | 0.85 | 1.04
4 | Cl.c1cc2oc3ccc(OCCN4CCCC4)cc3c2cc1OCCN1CCCC1 | 0.88 | 1.04 | 1.08 | 0.98 | 1
5 | CCCN(CCC)CCCOC(=O)c1ccc2oc3ccc(C(=O)OCCCN(CCC)CCC)cc3c2c1.Cl | 1.88 | 1.21 | 0.96 |  | 
6 | CN(C)CCOc1ccc2sc3ccc(OCCN(C)C)cc3c2c1.Cl | 0.91 | 1.13 | 1.09 | 0.98 | 1.06
7 | C=CCN(CC=C)CCCOC(=O)c1ccc2oc3ccc(C(=O)OCCCN(CC=C)CC=C)cc3c2c1.Cl | 1.33 | 1.2 | 1.11 |  | 
8 | CN(C)CCCCC(C)(C)COC(=O)c1ccc2c(c1)sc1ccc(C(=O)OCC(C)(C)CCCN(C)C)cc12.Cl | 1.11 | 1.42 | 1.07 |  | 
9 | CN(C)CCCOC(=O)c1ccc2oc3ccc(C(=O)OCCCN(C)C)cc3c2c1.Cl | 1.36 | 1.26 | 1.19 | 1.07 | 1.07
10 | CC(COc1ccc2sc3ccc(OCC(C)CN(C)C)cc3c2c1)CN(C)C.Cl (stereo unspecified) | 0.84 | 1.08 | 0.96 | 1.04 | 0.94
11 | Cl.O=C(CN1CCCCC1)c1ccc2oc3ccc(C(=O)CN4CCCCC4)cc3c2c1 | 2.41 | 1.12 | 1.11 | 0.87 | 1.41
12 | O=C(CCCN1CCCCC1)c1ccc2oc3ccc(C(=O)CCCN4CCCCC4)cc3c2c1 | 1.81 | 1.49 |  | 1.06 | 1.19
13 | O=C(CCCN1CCCCC1)c1ccc2sc3ccc(C(=O)CCCN4CCCCC4)cc3c2c1 | 0.61 | 1.9 | 1.1 | 1.16 | 1.22
14 | CC(CN(C)C)Oc1ccc2oc3ccc(OC(C)CN(C)C)cc3c2c1.O=C(O)CC(O)(CC(=O)O)C(=O)O (stereo unspecified) | 0.9 | 1.08 | 0.94 | 0.84 | 0.84
15 | CCCCN(CCCC)CCCNC(=O)c1ccc2oc3ccc(C(=O)NCCCN(CCCC)CCCC)cc3c2c1.O=C(O)CC(O)(CC(=O)O)C(=O)O | 0.85 | 1.24 | 1.17 |  | 
16 | Cl.c1cc2sc3ccc(OCCCN4CCCCC4)cc3c2cc1OCCCN1CCCCC1 | 0.77 | 1.94 | 1.34 | 0.98 | 1.06
17 | CCn1c2ccc(OCCCN(C)C)cc2c2cc(OCCCN(C)C)ccc21.Cl | 0.52 | 1.1 | 0.92 | 0.9 | 0.88
18 | O=C(CCCN1CCOCC1)c1ccc2oc3ccc(C(=O)CCCN4CCOCC4)cc3c2c1 | 1.96 | 1.39 | 1 | 1.08 | 1.08
19 | Cl.O=C(OCCCN1CCCCC1)c1ccc2c(c1)sc1ccc(C(=O)OCCCN3CCCCC3)cc12 | 1.55 | 1.36 | 1.4 |  | 
20 | CCN(CC)CCOc1ccc2c(c1)c1cc(OCCN(CC)CC)ccc1n2CC.Cl | 0.85 | 1.13 | 1.05 | 0.87 | 0.92
21 | CC(C)CCN(CCCOC(=O)c1ccc2c(c1)sc1ccc(C(=O)OCCCN(CCC(C)C)CCC(C)C)cc12)CCC(C)C.Cl | 1.11 | 0.98 | 0.96 |  | 
22 | CC1CCCN(COC(=O)c2ccc3oc4ccc(C(=O)OCN5CCCC(C)C5)cc4c3c2)C1.Cl (stereo unspecified) | 1.05 | 1.07 | 1.07 | 1.03 | 1
23 | CCn1c2ccc(C(=O)CCCN(C)C)cc2c2cc(C(=O)CCCN(C)C)ccc21.O=C(O)/C=C/C(=O)O | 1.44 | 1.63 | 1.42 | 0.94 | 1.06

Row | Structure (SMILES) | Ratio [1] | Ratio [2] | Ratio [3] | Ratio [4] | Ratio [5]
24 | CCCCN(CCCC)CCCOC(=O)c1ccc2oc3ccc(C(=O)OCCCN(CCCC)CCCC)cc3c2c1.Cl | 1.6 | 1.4 | 1.06 |  | 
25 | CCN(CC)CCCOC(=O)c1ccc2sc3ccc(C(=O)OCCCN(CC)CC)cc3c2c1.Cl | 1.3 | 1.77 |  |  | 
26 | Cl.O=C(CCCN1CCOCC1)c1ccc2c(c1)sc1ccc(C(=O)CCCN3CCOCC3)cc12 | 1.98 | 1.33 | 1.13 | 0.9 | 0.94
27 | CC(C)CCN(CCCOC(=O)c1ccc2oc3ccc(C(=O)OCCCN(CCC(C)C)CCC(C)C)cc3c2c1)CCC(C)C | 1.11 | 1.07 | 0.91 |  | 
28 | CC(COc1ccc2oc3ccc(OCC(C)CN(C)C)cc3c2c1)CN(C)C.Cl (stereo unspecified) | 0.57 | 1.14 | 1.2 | 0.9 | 0.92
29 | CCn1c2ccc(OCCN3CCCCC3)cc2c2cc(OCCN3CCCCC3)ccc21.Cl | 1.25 | 1.32 | 1.16 | 1.09 | 1.09
30 | Cl.c1cc2oc3ccc(OCCCN4CCCCC4)cc3c2cc1OCCCN1CCCCC1 | 0.63 | 1.44 | 1.46 | 1.02 | 1.02
31 | CC(C)N(CCOc1ccc2oc3ccc(OCCN(C(C)C)C(C)C)cc3c2c1)C(C)C | 1.14 | 1.24 | 0.88 | 0.96 | 0.88
32 | CCN(CC)CCCOC(=O)c1ccc2c(c1)c1cc(C(=O)OCCCN(CC)CC)ccc1n2CC.Cl | 1.87 | 1.74 | 1.33 |  | 0.75
33 | CCN(CC)CCOC(=O)c1ccc2c(c1)sc1ccc(C(=O)OCCN(CC)CC)cc12.Cl | 1.2 | 1.04 | 1.14 |  | 
34 | Cl.c1cc2sc3ccc(OCCN4CCCCC4)cc3c2cc1OCCN1CCCCC1 | 1.3 | 1.57 | 1.09 | 0.98 | 1.02
35 | CCN(CC)CCCCc1ccc2c(c1)c1cc(CCCCN(CC)CC)ccc1n2CC.Cl |  | 1.22 | 1.22 | 0.98 | 1.17
36 | CCn1c2ccc(OCCN3CCOCC3)cc2c2cc(OCCN3CCOCC3)ccc21 | 1.02 | 1.08 | 0.92 | 0.86 | 0.88
37 | O=C(CCCN1CCCCC1)c1ccc2c(c1)sc1ccc(C(=O)CCCN3CCCCC3)cc12 | 2.08 | 1.71 | 1.21 | 1.1 | 1.23
38 | CCCCN(CCCC)CCCOC(=O)c1ccc2sc3ccc(C(=O)OCCCN(CCCC)CCCC)cc3c2c1.Cl | 2.43 | 1.48 | 1.29 | 0.93 | 0.93
39 | O=C(CCCN1CCCCC1)c1ccc2[nH]c3ccc(C(=O)CCCN4CCCCC4)cc3c2c1 | 1 | 0.96 | 1.22 | 0.86 | 0.88
40 | CCN(CC)CCCOC(=O)c1ccc2[nH]c3ccc(C(=O)OCCCN(CC)CC)cc3c2c1.Cl | 1.47 | 1.69 | 1.04 | 1.1 | 1.17
41 | CC1CCN(CCCC(=O)c2ccc3oc4ccc(C(=O)CCCN5CCC(C)CC5)cc4c3c2)CC1 | 2.04 | 2.13 | 1.23 | 1.11 | 1.19
42 | CCN(CC)CCCOC(=O)c1ccc2oc3ccc(C(=O)OCCCN(CC)CC)cc3c2c1.Cl | 1.22 | 1.19 |  |  | 
43 | CC1CCN(CCCC(=O)c2ccc3sc4ccc(C(=O)CCCN5CCC(C)CC5)cc4c3c2)CC1 | 1.69 | 1.84 | 1.22 | 1.06 | 1.1
44 | CN(C)CCCC(=O)c1ccc2sc3ccc(C(=O)CCCN(C)C)cc3c2c1.Cl | 1.09 | 1.66 | 1.09 | 1 | 0.95
45 | CCN(CC)CCOc1ccc2sc3ccc(OCCN(CC)CC)cc3c2c1.O=C(O)/C=C/C(=O)O | 1.32 | 1.12 | 0.96 | 0.88 | 0.86
46 | CCn1c2ccc(CCCCN3CCCCC3)cc2c2cc(CCCCN3CCCCC3)ccc21.Cl | 0.57 | 1.45 | 1.28 |  | 
